From the CombiSolv-Exp solvation set (Vermeire and Green 2021)

Assay: solvent given as SMILES

CCOCC
Settings | solvation free energy, 298 K [kcal/mol]
in C1CCOC1 | -3.51
in C=CCCCCCCCCCCCCCC | -2.74
in CC(=O)N(C)C | -2.81
in CC(C)=O | -3.25
in CCCCCCCC | -3.05
in CCCCCCCCCCCCCCCC | -2.79
in CCCCCCCCCCO | -2.93
in CCCCCCCCO | -2.99
in CCCCCO | -3.12
in CCCCCl | -3.4
in CCCCN(C=O)CCCC | -2.88
in CCCCO | -3.1
in CCCCOCCCC | -3.23
in CCN1CCCC1=O | -2.77
in CCN(CC)C(C)=O | -2.95
in CCNC(C)=O | -2.82
in CCNC=O | -2.78
in CCO | -3.26
in CCOC(C)(C)C | -3.23
in CN1CCCC1=O | -2.77
in CN1CCCCC1=O | -2.77
in CN(C)C=O | -2.81
in CNC(C)=O | -2.77
in CNC=O | -2.66
in CO | -3.26
in CS(C)=O | -2.2
in Cc1cccc(C)c1 | -3.29
in ClC(Cl)(Cl)Cl | -3.52
in ClCCCl | -3.44
in ClCCl | -3.92
in NC=O | -1.93
in O | -1.74
in [2H]O[2H] | -1.96

CCCOC(=O)c1ccc(O)cc1
Settings | solvation free energy, 298 K [kcal/mol]
in O | -9.37

O=[N+]([O-])c1ccc(Cl)c(Cl)c1Cl
Settings | solvation free energy, 298 K [kcal/mol]
in CCCCCCCCC=CCCCCCCCC(=O)OCC(COC(=O)CCCCCCCC=CCCCCCCCC)OC(=O)CCCCCCCC=CCCCCCCCC | -10.1
in O | -4.07

CCCCC(=O)CC(C)=O
Settings | solvation free energy, 298 K [kcal/mol]
in O | -4.28

COc1cccc(C=O)c1O
Settings | solvation free energy, 298 K [kcal/mol]
in O | -6.89

C=C(C)CC(C)(C)C
Settings | solvation free energy, 298 K [kcal/mol]
in CCC(C)=O | -4.34
in O | 2.01
in OCCO | -1.42
in OCCOCCO | -2.19
in OCCOCCOCCO | -2.29

COc1ccccc1OC
Settings | solvation free energy, 298 K [kcal/mol]
in O | -5.33

CCCCC(C)=O
Settings | solvation free energy, 298 K [kcal/mol]
in C1COCCO1 | -5.69
in CC(C)CC(C)(C)C | -4.72
in CCCCCC | -4.68
in CCCCCCC | -4.55
in CCCCCCCC | -4.6
in CCCCCCCCCC | -4.61
in CCCCCCCCCCCCCCCC | -4.39
in CCCCCCCCO | -5.02
in CO | -5.21
in ClC(Cl)(Cl)Cl | -5.36
in NC=O | -4.46
in O | -3.3
in [2H]O[2H] | -3.24

COc1c(Cl)cc(Cl)c(OC)c1O
Settings | solvation free energy, 298 K [kcal/mol]
in O | -6.44

O=S(=O)(c1ccccc1)c1ccccc1
Settings | solvation free energy, 298 K [kcal/mol]
in C1CCOC1 | -14.9
in C1COCCO1 | -15
in CC(C)(C)O | -13.2
in CC(C)CC(C)(C)C | -11.6
in CC(C)CCO | -13.1
in CC(C)CO | -13.2
in CC(C)O | -13.2
in CC(C)OC(C)C | -13.1
in CCC(C)CO | -13.2
in CCC(C)O | -13.4
in CCCC(C)O | -13.1
in CCCCCC | -11.8
in CCCCCCC | -11.8
in CCCCCCCC | -11.8
in CCCCCCCCCC | -11.8
in CCCCCCCCCCO | -12.8
in CCCCCCCO | -13.1
in CCCCCCO | -13.2
in CCCCCO | -13.3
in CCCCCl | -14.1
in CCCCO | -13.4
in CCCCOC(C)=O | -14.2
in CCCCOCCCC | -12.8
in CCCO | -13.5
in CCO | -13.6
in CCOC(C)=O | -14.6
in CCOCC | -13.7
in CO | -13.8
in COC(C)(C)C | -13.5
in COC(C)=O | -14.7
in O | -10.1

Cc1cc(NS(=O)(=O)c2ccc(N)cc2)nc(C)n1
Settings | solvation free energy, 298 K [kcal/mol]
in O | -21.9

CN1CCCC1=O
Settings | solvation free energy, 298 K [kcal/mol]
in C1CCCCC1 | -5.73
in CC(C)CC(C)(C)C | -5.93
in O | -7.83
in c1ccccc1 | -6.83

CC1(C)CCCC2(C)C3CC4C(C31)C42C (stereo unspecified)
Settings | solvation free energy, 298 K [kcal/mol]
in O | 1.12

C=CC1(C)CCC(C(C)C)=CC1C(=C)C (stereo unspecified)
Settings | solvation free energy, 298 K [kcal/mol]
in O | -0.42
